Results published in patent US8318781B2, “G-protein-conjugated receptor agonist” (Japan Science and Technology Agency, priority 2007, dated 2012).
Where two headings read alike, the source gives them in different places.

Key:
human GPR40 (hGPR40) [1] = target: T1, human GPR40 (hGPR40) (Homo sapiens, UniProt O14842); assay: Determination of intracellular Ca2+ concentration (FLIPR), cell line TXGPR40; type: cell-based; conditions: for agonistic activity for GPR40 (in words): cells in which GPR40 has been transgenically expressed; for [Ca^2+]/GPR40 10 μM (ratio vs. LA): relative fluorescence intensity vs LA at 10 μM
T1 construct: expressed in transfected cells; doxycycline-inducible expression vector

human GPR120 (hGPR120) [2] = target: T2, human GPR120 (hGPR120) (Homo sapiens, UniProt Q5NUL3); assay: Determination of intracellular Ca2+ concentration (FLIPR), cell line GPR120/Flp-in; type: cell-based; conditions: for [Ca^2+]/GPR120/Flp-In 10 μM (ratio vs. LA): relative fluorescence intensity vs LA at 10 μM
T2 construct: expressed in transfected cells; doxycycline-inducible expression vector
T2 sequence (Q5NUL3 1-361): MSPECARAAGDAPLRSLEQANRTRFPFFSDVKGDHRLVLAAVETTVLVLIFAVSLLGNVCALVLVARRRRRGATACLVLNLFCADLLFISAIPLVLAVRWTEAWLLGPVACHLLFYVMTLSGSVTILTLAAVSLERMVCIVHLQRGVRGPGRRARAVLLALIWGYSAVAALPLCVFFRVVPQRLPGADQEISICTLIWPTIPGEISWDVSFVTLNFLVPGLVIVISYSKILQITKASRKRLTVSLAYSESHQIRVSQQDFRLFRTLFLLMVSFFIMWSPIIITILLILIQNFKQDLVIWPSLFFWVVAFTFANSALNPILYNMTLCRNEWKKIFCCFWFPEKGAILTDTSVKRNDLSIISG

human GPR120 (hGPR120) [3] = target: T2, human GPR120 (hGPR120); assay: Determination of intracellular Ca2+ concentration (FLIPR), cell line TXGPR120; type: cell-based; conditions: for agonistic activity for hGPR120 (in words): cells in which GPR120 has been transgenically expressed; for [Ca^2+]/GPR120 10 μM (ratio vs. LA): relative fluorescence intensity vs LA at 10 μM
human GPR40 (hGPR40) [4] = target: T1, human GPR40 (hGPR40); assay: ERK assay, screening for GPR40 ligands in cell line TXGPR40; type: cell-based; conditions: TXGPR40 cells; for ERK/GPR40 10 μM: ligand 10 μM; for ERK/GPR40 10 μM / ERK/GPR40 100 μM: class relative to LA; for ERK/GPR40 100 μM: ligand 100 μM
human GPR120 (hGPR120) [5] = target: T2, human GPR120 (hGPR120); assay: ERK assay, screening for GPR120 ligands in cell line TXGPR120; type: cell-based; conditions: TXGPR120 cells; for ERK/GPR120 10 μM: ligand 10 μM; for ERK/GPR120 10 μM / ERK/GPR120 100 μM: class relative to LA; for ERK/GPR120 100 μM: ligand 100 μM;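 on ERK/GPR120 10 μM: signals normalized between DMSO and PMA controls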
[6] = system: GLP-1 (Glucagon-Like Peptide) release; assay: GLP-1 (glucagon-like peptide) release test in mice; type: in vivo; conditions: C57BL/6J mice; for Average GLP-1 concentration: given into the colon by catheter, portal vein blood after 15 minutes, ELISA, NCG21 suspension in PEG at 100 mmol/g body weight; for increase of GLP-1 concentration in the portal blood relative to control DMSO: portal blood 15 minutes after colonic administration
Procedure: C57BL/6J mice (8 weeks old) were anesthetized with Nembutal (pentobarbital sodium) (60 mg/kg body weight), a catheter was inserted into the colon through the celiotomy, and the solution of the test compound was administered through the catheter (NCG21 as a suspension in PEG at 100 mmol/g body weight, at a rate of 100 μl/min). After 15 minutes, a blood sample was taken from the portal vein, centrifuged at 8000 rpm for 10 minutes, and the supernatant was stored at −80° C. GLP-1 (ng/mL) was determined using ELISA kit (Wako Pure Chemical Industries, Ltd.) within the next day. Each group consists of 12 mice, except that 11 mice were used for NCG21.

[7] = TXGPR40 cells, maximum fluorescence intensity vs ligand concentration, read-out: [Ca^2+]/GPR40 pEC50 (converted)
[8] = GPR120/Flp-in cells, maximum fluorescence intensity vs ligand concentration, read-out: [Ca^2+]/GPR120/Flp-In pEC50 (converted)

T1 sequence (O14842 whole entry): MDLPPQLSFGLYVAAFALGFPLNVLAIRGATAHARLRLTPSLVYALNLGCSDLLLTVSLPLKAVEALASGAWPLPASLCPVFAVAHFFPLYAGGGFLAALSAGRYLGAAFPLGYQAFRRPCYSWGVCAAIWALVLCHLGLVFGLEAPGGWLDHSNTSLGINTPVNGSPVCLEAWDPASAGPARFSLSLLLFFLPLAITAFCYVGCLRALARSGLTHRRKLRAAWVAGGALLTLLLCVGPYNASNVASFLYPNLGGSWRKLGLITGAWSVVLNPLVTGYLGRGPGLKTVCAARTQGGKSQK

| SMILES | EC50 (human GPR40 (hGPR40) [1]) [µM] | melting point [°C] | EC50 (human GPR120 (hGPR120) [2]) [µM] | agonistic activity for GPR40 (in words) (human GPR40 (hGPR40) [1]) | [Ca^2+]/GPR40 10 μM (ratio vs. LA) (human GPR40 (hGPR40) [1]; TXGPR40 cells) | EC50 (human GPR120 (hGPR120) [3]) [µM] | agonistic activity for hGPR120 (in words) (human GPR120 (hGPR120) [3]) | [Ca^2+]/GPR120 10 μM (ratio vs. LA) (human GPR120 (hGPR120) [3]; TXGPR120 cells) | ERK activation for GPR40 (in words) (human GPR40 (hGPR40) [4]; FIGS. 1-4) | ERK/GPR40 10 μM (human GPR40 (hGPR40) [4]) | ERK/GPR40 100 μM (human GPR40 (hGPR40) [4]) | ERK activation for GPR120 (in words) (human GPR120 (hGPR120) [5]; FIGS. 5-8) | ERK/GPR120 10 μM (human GPR120 (hGPR120) [5]) | ERK/GPR120 100 μM (human GPR120 (hGPR120) [5]) | [Ca^2+]/GPR120/Flp-In 10 μM (ratio vs. LA) (human GPR120 (hGPR120) [2]; GPR120/Flp-in cells) | EC50 (human GPR40 (hGPR40) [1]; [7]) [µM] | EC50 (human GPR120 (hGPR120) [3]; TXGPR120 cells, maximum fluorescence intensity vs ligand concentration, read-out: [Ca^2+]/GPR120 pEC50 (converted)) [µM] | Average GLP-1 concentration [6] [ng/mL] | increase of GLP-1 concentration in the portal blood relative to control DMSO [6] [times] | EC50 (human GPR120 (hGPR120) [2]; [8]) [µM] |
| --- | --- | --- | --- | --- | --- | --- | --- | --- | --- | --- | --- | --- | --- | --- | --- | --- | --- | --- | --- | --- |
| O=C(O)CCCCc1ccc(OCCN(c2ccccc2)c2ccccn2)cc1 [NCG23, 5-{4-[2-(2-phenylpyridinylamino)ethoxy]phenyl}pentanoic acid] | 7.76 | 74 to 75 | 9.12 | – | – | – | – | – | – | – | – | – | – | – | – | – | – | – | – | – |
| Cc1cccc(N(CCOc2ccc(CCCC(=O)O)cc2)c2ccccc2)n1 [NCG38] | 13.5 | – | 6.76 | showed a specific reactivity | 0.34 | 22.4 | exhibit a similar effect | 0.56 | strongly activated ERK | ++ (++ denotes 50 to 100% of LA) | +++ (+++ denotes a higher value than LA) | strongly activate ERK | +++ (+++ denotes a higher value than LA) | +++ (+++ denotes a higher value than LA) | 0.81 | – | – | – | – | – |
| O=C(O)CCCc1ccc(OCCN(c2ccccc2)c2ccccn2)cc1 [NCG21] | – | 98 to 99 | – | – | – | – | – | – | – | – | – | – | – | – | – | 18.6 | 2.88 | 4.02 | 2.5 | 1.26 |
| CCCN(CCOc1ccc(CCC(=O)O)cc1)c1ccccn1 [NCP03] | – | – | – | showed a specific reactivity | 1.25 | – | exhibit a similar effect | 0.00 | – | ++ (++ denotes 50 to 100% of LA) | +++ (+++ denotes a higher value than LA) | – | + (+ denotes 0 to 100% of LA) | ++ (++ denotes 50 to 100% of LA) | 0.57 | 5.25 | – | – | – | 17.8 |
| O=C(O)CCc1ccc(OCCN(c2ccccc2)c2ccccn2)cc1 [NCP14] | – | – | – | showed a specific reactivity | 0.98 | – | exhibit a similar effect | 0.00 | – | ++ (++ denotes 50 to 100% of LA) | ++ (++ denotes 50 to 100% of LA) | – | – | ++ (++ denotes 50 to 100% of LA) | 0.56 | 9.77 | – | – | – | 15.5 |
| CC/C=C\C/C=C\C/C=C\CCCCCCCC(=O)O [LA, cis-α-linolenic acid, reference compound] | – | – | – | – | – | – | – | – | – | – | – | – | – | – | – | – | – | 3.87 | 2.4 | – |
